# From ChEMBL document CHEMBL1140451, “Inhibitory effect of synthetic C-C biflavones on various phospholipase A(2)s activity” (Bioorg Med Chem, 2007)
# Columns and labels:
# Format in all cases: cell-based
# [1] = molecular target: T1, Group 10 secretory phospholipase A2 (Homo sapiens, UniProt O15496); assay: Inhibition of human cloned sPLA2-10 expressed in HEK293 cells
# T1 sequence (O15496 whole entry): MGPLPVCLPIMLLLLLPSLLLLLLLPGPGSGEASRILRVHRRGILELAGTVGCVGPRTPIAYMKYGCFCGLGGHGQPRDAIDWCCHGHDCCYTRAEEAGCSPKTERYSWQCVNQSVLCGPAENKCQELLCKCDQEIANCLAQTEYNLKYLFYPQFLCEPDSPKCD
# Phospholipase A2 = Phospholipase A2 (Rattus norvegicus, UniProt P04055); assay: Inhibition of rat cloned sPLA2-1B expressed in HEK293 cells
# Phospholipase A2, sequence (P04055 whole entry): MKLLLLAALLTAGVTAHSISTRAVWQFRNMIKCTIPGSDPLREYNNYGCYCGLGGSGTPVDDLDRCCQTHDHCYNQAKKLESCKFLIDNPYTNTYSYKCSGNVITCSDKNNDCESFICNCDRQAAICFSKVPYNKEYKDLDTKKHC
# [2] = molecular target: T2, Cytosolic phospholipase A2 (Homo sapiens, UniProt P47712); assay: Inhibition of human cloned cPLA2 expressed in HEK293 cells
# T2 sequence (P47712 whole entry): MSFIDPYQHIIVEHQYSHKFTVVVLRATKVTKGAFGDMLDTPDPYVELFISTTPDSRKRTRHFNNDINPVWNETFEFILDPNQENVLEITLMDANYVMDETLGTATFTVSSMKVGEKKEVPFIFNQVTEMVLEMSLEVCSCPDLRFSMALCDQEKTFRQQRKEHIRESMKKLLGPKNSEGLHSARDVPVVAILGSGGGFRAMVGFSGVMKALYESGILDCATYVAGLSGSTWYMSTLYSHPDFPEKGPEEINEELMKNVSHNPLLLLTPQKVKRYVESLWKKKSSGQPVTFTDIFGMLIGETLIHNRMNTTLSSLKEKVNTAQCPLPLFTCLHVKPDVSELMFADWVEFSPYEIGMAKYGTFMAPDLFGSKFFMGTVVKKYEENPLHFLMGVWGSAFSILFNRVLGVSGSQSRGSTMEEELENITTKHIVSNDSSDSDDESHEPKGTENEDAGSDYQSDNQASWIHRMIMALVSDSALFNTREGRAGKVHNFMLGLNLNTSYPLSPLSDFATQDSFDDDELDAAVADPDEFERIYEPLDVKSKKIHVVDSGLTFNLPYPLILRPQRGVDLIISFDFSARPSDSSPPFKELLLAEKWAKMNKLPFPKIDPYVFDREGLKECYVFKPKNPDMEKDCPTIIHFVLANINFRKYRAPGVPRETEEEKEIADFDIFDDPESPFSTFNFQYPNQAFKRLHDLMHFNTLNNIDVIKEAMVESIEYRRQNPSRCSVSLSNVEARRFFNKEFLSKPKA
# [3] = Inhibition of human cloned sPLA2-5 expressed in HEK293 cells
SMILES,IC50 [1] [µM],IC50 (Phospholipase A2) [µM],IC50 [2] [µM],IC50 [3] [µM]
O=c1cc(-c2ccc(-c3ccc4oc(-c5ccccc5)cc(=O)c4c3)cc2)oc2ccccc12,> 100,> 100,11.9,10.8
O=c1cc(-c2ccc(-c3cccc(-c4cc(=O)c5ccccc5o4)c3)cc2)oc2ccccc12,> 100,> 100,38.7,23.9
O=c1cc(-c2cccc(-c3ccc4oc(-c5ccccc5)cc(=O)c4c3)c2)oc2ccccc12,27.6,> 100,16.8,12.8

# More lines, now with the values ahead:
IC50 [1] [µM],IC50 (Phospholipase A2) [µM],IC50 [2] [µM],IC50 [3] [µM],SMILES
> 100,> 100,6,8.7,O=c1cc(-c2ccc(-c3ccc(-c4cc(=O)c5ccccc5o4)cc3)cc2)oc2ccccc12
> 100,> 100,8.42,6.5,O=c1cc(-c2ccc(-c3c(-c4ccccc4)oc4ccccc4c3=O)cc2)oc2ccccc12
> 100,> 100,48.1,50,O=c1cc(-c2ccccc2)oc2ccc(-c3ccc4oc(-c5ccccc5)cc(=O)c4c3)cc12
> 100,> 100,> 100,17.6,O=c1cc(-c2ccc(Oc3cc(-c4cc(=O)c5c(O)cc(O)cc5o4)ccc3O)cc2)oc2cc(O)cc(O)c12 [OCHNAFLAVONE]
> 100,> 100,> 100,41.8,O=c1cc(-c2ccc(O)c(-c3c(O)cc(O)c4c(=O)cc(-c5ccc(O)cc5)oc34)c2)oc2cc(O)cc(O)c12 [AMENTOFLAVONE]
